ChEMBL document CHEMBL1151882, “Carbonic anhydrase inhibitors. Inhibition of the fungal beta-carbonic anhydrases from Candida albicans and Cryptococcus neoformans with boronic acids” (Bioorg Med Chem Lett, 2009)
One block for each compound: values may come before it.

Tests used:
Carbonic anhydrase = biological target: T1, Carbonic anhydrase (Candida albicans (strain SC5314 / ATCC MYA-2876) (Yeast), UniProt Q5AJ71)
T1 sequence (Q5AJ71 whole entry): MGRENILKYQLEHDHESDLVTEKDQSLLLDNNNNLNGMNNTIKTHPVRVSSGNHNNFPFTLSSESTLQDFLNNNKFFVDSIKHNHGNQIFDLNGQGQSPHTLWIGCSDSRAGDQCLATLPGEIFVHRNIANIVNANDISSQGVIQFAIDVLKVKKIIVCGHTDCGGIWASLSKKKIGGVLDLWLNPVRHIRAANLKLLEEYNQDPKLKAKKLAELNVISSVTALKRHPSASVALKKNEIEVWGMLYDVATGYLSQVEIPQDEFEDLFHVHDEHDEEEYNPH

Carbonic anhydrase 1 = Carbonic anhydrase 1 (Homo sapiens, UniProt P00915)
Carbonic anhydrase 1, sequence (P00915 whole entry): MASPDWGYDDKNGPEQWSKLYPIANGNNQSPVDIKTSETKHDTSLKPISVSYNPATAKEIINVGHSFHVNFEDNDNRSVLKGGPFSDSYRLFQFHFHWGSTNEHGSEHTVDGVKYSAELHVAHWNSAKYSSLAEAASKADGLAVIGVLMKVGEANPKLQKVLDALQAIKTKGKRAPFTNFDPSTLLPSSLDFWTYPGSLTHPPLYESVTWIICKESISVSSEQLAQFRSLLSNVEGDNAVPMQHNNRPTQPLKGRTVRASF

Carbonic anhydrase 2 = Carbonic anhydrase 2 (Homo sapiens, UniProt P00918)

Compound: OB(O)c1ccc2ccccc2c1
Ki (Carbonic anhydrase): 9.3 µM

Compound: OB(O)c1ccc(Br)cc1
Ki (Carbonic anhydrase): 15.9 µM | Ki (Carbonic anhydrase 1): 11.7 µM | Ki (Carbonic anhydrase 2): 7 µM

Compound: COc1ccc(B(O)O)cc1
Ki (Carbonic anhydrase): 15.6 µM | Ki (Carbonic anhydrase 1): 10.9 µM | Ki (Carbonic anhydrase 2): 7.9 µM

Compound: OB(O)/C=C/c1ccc(-c2ccccc2)cc1
Ki (Carbonic anhydrase): 42.3 µM | Ki (Carbonic anhydrase 2): 373 µM

Compound: OB(O)c1ccc(Oc2ccccc2)cc1
Ki (Carbonic anhydrase): 8.6 µM | Ki (Carbonic anhydrase 1): 6 µM | Ki (Carbonic anhydrase 2): 11.5 µM

Compound: OB(O)/C=C/Cc1ccccc1
Ki (Carbonic anhydrase): 633 µM | Ki (Carbonic anhydrase 1): 8.6 µM | Ki (Carbonic anhydrase 2): 18.1 µM

Compound: Cc1ccc(/C=C/B(O)O)cc1
Ki (Carbonic anhydrase): 460 µM | Ki (Carbonic anhydrase 2): 617 µM

Compound: CCCCc1ccc(B(O)O)cc1
Ki (Carbonic anhydrase): 8 µM

Compound: OB(O)/C=C/c1ccc(-c2ccc(C(F)(F)F)cc2)cc1
Ki (Carbonic anhydrase): 5210 µM

Compound: OB(O)c1ccc(-c2ccccc2)cc1 [BIPHENYLBORONIC ACID]
Ki (Carbonic anhydrase): 7.8 µM

Ki (Carbonic anhydrase 1): 1560 µM | Ki (Carbonic anhydrase 2): 1050 µM
Compound: OB(O)c1ccccc1 [PHENYLBORONIC ACID]

Compound: OB(O)/C=C/c1ccccc1 [STYRYLBORONIC ACID]
Ki (Carbonic anhydrase): 779 µM | Ki (Carbonic anhydrase 2): 534 µM

Compound: Cc1ccc(B(O)O)cc1 [TOLYL BORONIC ACID]
Ki (Carbonic anhydrase): 9 µM | Ki (Carbonic anhydrase 1): 278 µM | Ki (Carbonic anhydrase 2): 10.8 µM
